Literature values as cited in patent EP4555997A1, “WATER-SOLUBLE COMPOSITION COMPRISING UROLITHIN” (Science4Beauty Sp. z o.o., priority 2023, dated 2025).

Conditions: HPLC-determined, water at 30° C

**Q.** With `O=c1oc2cc(O)ccc2c2ccc(O)cc12` [UroA, 3,8-dihydroxy-6H-benzo[c]chromen-6-one] as the compound, how does the solubility in water read?
**A.** less than 0.01 g/L
